Assay results from patent publication US7410975B2, “Small molecule toll-like receptor (TLR) antagonists” (Coley Pharmaceutical Group, Inc., priority 2003, dated 2008).

Molecular target: T1, human TLR9 (hTLR9) (Homo sapiens, UniProt Q9NR96)
T1 construct: expressed in transfected cells
T1 sequence (Q9NR96 26-1032): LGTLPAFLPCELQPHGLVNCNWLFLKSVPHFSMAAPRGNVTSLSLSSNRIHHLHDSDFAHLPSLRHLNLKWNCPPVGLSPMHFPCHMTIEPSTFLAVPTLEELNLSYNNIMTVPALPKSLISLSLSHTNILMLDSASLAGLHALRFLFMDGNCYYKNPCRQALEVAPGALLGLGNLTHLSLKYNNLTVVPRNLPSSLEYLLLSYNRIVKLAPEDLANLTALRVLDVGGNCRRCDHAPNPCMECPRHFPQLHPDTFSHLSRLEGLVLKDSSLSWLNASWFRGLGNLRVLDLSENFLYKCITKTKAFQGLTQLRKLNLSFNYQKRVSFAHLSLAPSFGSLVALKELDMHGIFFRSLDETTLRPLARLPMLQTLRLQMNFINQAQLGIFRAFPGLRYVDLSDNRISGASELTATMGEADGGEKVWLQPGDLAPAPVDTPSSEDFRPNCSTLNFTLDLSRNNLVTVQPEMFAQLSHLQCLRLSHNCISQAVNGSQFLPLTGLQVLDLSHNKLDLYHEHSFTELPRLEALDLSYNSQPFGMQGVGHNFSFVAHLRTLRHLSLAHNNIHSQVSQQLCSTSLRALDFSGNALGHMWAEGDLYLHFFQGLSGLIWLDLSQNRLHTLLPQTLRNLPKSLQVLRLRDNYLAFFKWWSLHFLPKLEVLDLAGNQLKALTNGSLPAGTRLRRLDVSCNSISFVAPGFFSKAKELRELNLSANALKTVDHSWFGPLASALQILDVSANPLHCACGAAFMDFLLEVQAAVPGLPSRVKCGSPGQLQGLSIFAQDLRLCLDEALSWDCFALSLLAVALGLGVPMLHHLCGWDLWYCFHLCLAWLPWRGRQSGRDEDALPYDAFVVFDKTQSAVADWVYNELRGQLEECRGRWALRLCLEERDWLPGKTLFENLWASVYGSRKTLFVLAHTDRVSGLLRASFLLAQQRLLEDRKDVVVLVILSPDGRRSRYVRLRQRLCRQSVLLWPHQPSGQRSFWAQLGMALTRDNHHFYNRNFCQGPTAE
Test: Antagonist screen, hTLR9-NFκB-293 cells, 6× NF-κB-luciferase reporter, with EC50 of CpG ODN 2006
Assay type: cell-based
Settings: compound at 0.5, 5, 50 μg/ml; EC50 concentration of CpG ODN 2006; 16 h; NF-κB-luciferase
Experimental: Candidate small molecules for initial screening were obtained from a commercially available library of 880 off-patent small molecules selected for structural diversity and proven bioavailability in humans (Prestwick Chemical Library). […] Results were measured as fold induction over baseline luciferase activity measured in the absence of ODN 2006 and compared to fold induction over baseline in the presence of the EC50 concentration of ODN 2006 alone. […] Additional screening was performed in like manner using additional small molecules selected from another library or specifically prepared for this purpose.
The method is described in greater detail as follows. The cells for each individual cell clone (hTLR3-NFκB-293, hTLR7-NFκB-293, hTLR8-NFκB-293 and hTLR9-NFκB-293) were counted and seeded one day before the stimulation at 1.5×10^4 cells per well in 96-well cell culture plates. To become adherent the cells were incubated after seeding overnight at 37° C. in 5% CO2 humidified air.
The screen for each compound was performed at the same time for all of the receptors TLR3, TLR7, TLR8 and TLR9. Up to fifteen test compounds, each assayed in duplicate at each of three different final concentrations (0.5 μg/ml, 5 μg/ml, and 50 μg/ml), were used for 16 h cell stimulation on a single multiwell culture plate. A 4× final concentration master plate was created to prepare the different test compounds before they were added to the cells.
Controls were added as duplicates individually for each cell clone on the cell culture plate. Positive controls were used as follows (final concentrations): 50 μg/ml poly(I:C) for hTLR3-NFκB-293; 8 μM resiquimod (R848) for hTLR7-NFκB-293; 30 μM R848 for hTLR8-NFκB-293; and 2.5 μM CpG-ODN 2006 for hTLR9-NFκB-293. Media alone was used as negative control. After addition of controls and small molecules, the cell clones were additionally stimulated with the EC50 concentration of the appropriate receptor-specific ligand.
The mean value of wells H2 and H5 (each with cells and EC50 concentration of the appropriate receptor-specific ligand) divided by the mean of wells H3 and H6 (each with cells alone) yielded the baseline response (i.e., fold induction of luciferase activity) to EC50 concentration of the appropriate receptor-specific ligand.
After 16 h stimulation the supernatant was removed and the cells treated with lysis buffer and stored at −80° C. before measuring.
For each screen result a graphical documentation was performed.
The baseline result (measured with addition of the EC50 concentration of the receptor-specific ligand) for each cell culture plate was measured as described above. Antagonistic effects were measured by down regulation compared to the baseline. Antagonists were scored as follows: • 13: compounds for which there was clear down regulation at 0.5 μg/ml, 5 μg/ml, and 50 μg/ml; • 12: compounds for which there was clear down regulation at 5 μg/ml and 50 μg/ml; • 11: compounds for which there was clear down regulation only at 50 μg/ml; • —: compounds for which there was no clear down regulation even at 50 μg/ml. Agonists

| Compound | hTLR9 (inhibitory effect, antagonist score) |
| --- | --- |
| CN(C)CCCN1c2ccccc2Sc2ccc(C(F)(F)F)cc21.Cl [compound 53, Triflupromazinehydrochloride] | 13 (compounds for which there was clear down regulation at 0.5 μg/ml, 5 μg/ml, and 50 μg/ml) |
| C=CCc1ccccc1OC1(c2ccccc2)OC(=O)c2ccccc21 (centres unmarked) [compound 957] | 12 (compounds for which there was clear down regulation at 5 μg/ml and 50 μg/ml) |
| O=C(O)c1cccc2c1/C(=N/O)c1ccccc1-2 [compound 918] | — (compounds for which there was no clear down regulation even at 50 μg/ml) |
| CN1CCC(=C2c3ccccc3Sc3ccccc32)CC1.O=C(O)/C=C\C(=O)O [compound 294, Pimethixene maleate] | 11 (compounds for which there was clear down regulation only at 50 μg/ml) |
| O=C(O)c1ccccc1NC1CC=CC2=C1C(=O)c1ccccc1C2=O (centres unmarked) [compound 917] | — (compounds for which there was no clear down regulation even at 50 μg/ml) |
| CCOC(=O)c1cc([N+](=O)[O-])cc2c1-c1ccc([N+](=O)[O-])cc1C2=C(C#N)C#N [compound 1039] | 11 (compounds for which there was clear down regulation only at 50 μg/ml) |
| Cl.Cl.Fc1ccc(C(OCCN2CCN(CCCc3ccccc3)CC2)c2ccc(F)cc2)cc1 [compound 386, GBR 12909hydrochloride] | — (compounds for which there was no clear down regulation even at 50 μg/ml) |
| COCCCNC(=O)c1ccc2c(c1N)C(=O)c1ccccc1C2=O [compound 1337] | 12 (compounds for which there was clear down regulation at 5 μg/ml and 50 μg/ml) |
| Cl.Cl.c1ccc2c3c([nH]c2c1)C1C2CCC(C4CCCNC42)N1CC3 (centres unmarked) [compound 685, Nitrarine dihydorchloride] | 11 (compounds for which there was clear down regulation only at 50 μg/ml) |
| COC(=O)c1ccc(C2CC(=O)Nc3c2ccc2ccccc32)cc1 (centres unmarked) [compound 965] | — (compounds for which there was no clear down regulation even at 50 μg/ml) |
| O=C(c1cccc2c1-c1ccccc1/C2=N\O)N1CCCCC1 [compound 1050] | 12 (compounds for which there was clear down regulation at 5 μg/ml and 50 μg/ml) |
| OCCN1CCN(CCCN2c3ccccc3Sc3ccc(Cl)cc32)CC1 [compound 125, Perphenazine] | 11 (compounds for which there was clear down regulation only at 50 μg/ml) |
| Metixene hydrochloride [compound 491] | 12 (compounds for which there was clear down regulation at 5 μg/ml and 50 μg/ml) |
| CC[C@]12CCCN3CCc4c(n(c5ccccc45)C(=O)C1)[C@@H]32 [compound 607, Eburnamonine] | — (compounds for which there was no clear down regulation even at 50 μg/ml) |
| CCOC(=O)Oc1c(OC)cc(C(=O)O[C@@H]2C[C@@H]3CN4CCc5c([nH]c6cc(OC)ccc56)[C@H]4C[C@@H]3[C@H](C(=O)OC)[C@H]2OC)cc1OC [compound 564, Syrosingopine] | 13 (compounds for which there was clear down regulation at 0.5 μg/ml, 5 μg/ml, and 50 μg/ml) |
| COC(=O)[C@H]1[C@H]2C[C@@H]3c4[nH]c5cc(OC)ccc5c4CCN3C[C@H]2C[C@@H](OC(=O)c2cc(OC)c(OC)c(OC)c2)[C@@H]1OC [compound 875, Reserpine] | 12 (compounds for which there was clear down regulation at 5 μg/ml and 50 μg/ml) |
| O=C(O)c1ccc(C2(c3ccc(C(=O)O)cc3)OC(=O)c3ccccc32)cc1 [compound 970] | 11 (compounds for which there was clear down regulation only at 50 μg/ml) |
